Assay results published in US20180064807A1, “NOVEL LIPIDS AND COMPOSITIONS FOR THE DELIVERY OF THERAPEUTICS” (Arbutus Biopharma Corporation, priority 2008, published 2018).

Experiments:
Factor VII [1] = assay: In vivo determination of efficacy of novel lipid formulations (FVII knockdown, ED50); set-up: species or system C57Bl/6 mice; conditions: dose resulting in a 50% reduction in plasma FVII levels compared to control animals; FVII siRNA in cationic lipid/DSPC/cholesterol/PEG-lipid 40/10/40/10; intravenous, 24 h
Protocol: Cationic lipid containing particles were made using the preformed vesicle method. Cationic lipid, DSPC, cholesterol and PEG-lipid were solubilised in ethanol at a molar ratio of 40/10/40/10, respectively. The lipid mixture was added to an aqueous buffer (50 mM citrate, pH 4) with mixing to a final ethanol and lipid concentration of 30% (vol/vol) and 6.1 mg/mL respectively and allowed to equilibrate at room temperature for 2 min before extrusion. The hydrated lipids were extruded through two stacked 80 nm pore-sized filters (Nuclepore) at 22° C. using a Lipex Extruder (Northern Lipids, Vancouver, BC) until a vesicle diameter of 70-90 nm, as determined by Nicomp analysis, was obtained. This generally required 1-3 passes.
The FVII siRNA (solubilised in a 50 mM citrate, pH 4 aqueous solution containing 30% ethanol) was added to the vesicles, pre-equilibrated to 35° C., at a rate of […] with mixing. After a final target siRNA/lipid ratio of 0.06 (wt/wt) was achieved, the mixture was incubated for a further 30 min at 35° C. to allow vesicle re-organization and encapsulation of the FVII siRNA. The ethanol was then removed and the external buffer replaced with PBS (155 mM NaCl, 3 mM Na2HPO4, 1 mM KH2PO4, pH 7.5) by either dialysis or tangential flow diafiltration. The final encapsulated siRNA-to-lipid ratio was determined after removal of unencapsulated siRNA using size-exclusion spin columns or ion exchange spin columns.
Test formulations were initially assessed for their FVII knockdown in female 7-9 week old, 15-25 g, female C57Bl/6 mice at 0.1, 0.3, 1.0 and 5.0 mg/kg with 3 mice per treatment group. All studies included animals receiving either phosphate-buffered saline (PBS, Control group) or a benchmark formulation. Formulations were diluted to the appropriate concentration in PBS immediately prior to testing. Mice were weighed and the appropriate dosing volumes calculated (10 μl/g body weight). Test and benchmark formulations as well as PBS (for Control animals) were administered intravenously via the lateral tail vein. Animals were anesthetised 24 h later with an intraperitoneal injection of Ketamine/Xylazine and 500-700 μl of blood was collected by cardiac puncture into serum separator tubes (BD Microtainer). Blood was centrifuged at 2,000×g for 10 min at 15° C. and serum was collected and stored at −70° C. until analysis. Serum samples were thawed at 37° C. for 30 min, diluted in PBS and aliquoted into 96-well assay plates. Factor VII levels were assessed using a chromogenic assay (Biophen FVII kit, Hyphen BioMed) according to manufacturer's instructions and absorbance measured in microplate reader equipped with a 405 nm wavelength filter. Plasma FVII levels were quantified and ED50s (dose resulting in a 50% reduction in plasma FVII levels compared to control animals) calculated using a standard curve generated from a pooled sample of serum from Control animals. Those formulations of interest showing high levels of FVII knockdown (ED50<<0.1 mg/kg) were re-tested in independent studies at a lower dose range to confirm potency and establish ED50.

[2] = Determination of pKa of formulated lipids (TNS fluorescence); type: physicochemical; conditions: probe 2-(p-toluidino)-6-naphthalenesulfonic acid (TNS), 1 µM final, vesicles of cationic lipid/DSPC/CH/PEG-c-DOMG 40:10:40:10, pH 2 to 11
Protocol: The pKa's of the different ionisable cationic lipids were determined essentially as described (Eastman et al 1992 Biochemistry 31:4262-4268) using the fluorescent probe 2-(p-toluidino)-6-naphthalenesulfonic acid (TNS), which is non-fluorescent in water but becomes appreciably fluorescent when bound to membranes. Vesicles composed of cationic lipid/DSPC/CH/PEG-c-DOMG (40:10:40:10 mole ratio) were diluted to 0.1 mM in buffers (130 mM NaCl, 10 mM CH3COONH4, 10 mM MES, 10 mM HEPES) of various pH's, ranging from 2 to 11. An aliquot of the TNS aqueous solution (1 μM final) was added to the diluted vesicles and after a 30 second equilibration period the fluorescent of the TNS-containing solution was measured at excitation and emission wavelengths of 321 nm and 445 nm, respectively. The pKa of the cationic lipid-containing vesicles was determined by plotting the measured fluorescence against the pH of the solutions and fitting the data to a Sigmodial curve using the commercial graphing program IgorPro.

Factor VII [3] = assay: In vivo evaluation of FVII siRNA 1661 using cyclic cationic lipid based formulations (FVII assay); set-up: species or system rodent; conditions: lipid particles with FVII siRNA 1661
Protocol: C57BL/6 mice (Charles River Labs, MA) and Sprague-Dawley rats (Charles River Labs, MA) received either saline or siRNA in desired formulations via tail vein injection at a volume of 0.01 mL/g. At various time points post-administration, animals were anesthesized by isofluorane inhalation and blood was collected into serum separator tubes by retro orbital bleed. Serum levels of Factor VII protein were determined in samples using a chromogenic assay (Coaset Factor VII, DiaPharma Group, OH or Biophen FVII, Aniara Corporation, OH) according to manufacturer protocols. A standard curve was generated using serum collected from saline treated animals. In experiments where liver mRNA levels were assessed, at various time points post-administration, animals were sacrificed and livers were harvested and snap frozen in liquid nitrogen. Frozen liver tissue was ground into powder. Tissue lysates were prepared and liver mRNA levels of Factor VII and apoB were determined using a branched DNA assay (QuantiGene Assay, Panomics, Calif.).
The cyclic cationic lipids 506, 512 and 519-based formulations as described below were prepared, characterized and evaluated in vivo by FVII assay.

CCCCC/C=C\C/C=C\CCCCCCCCC(CCCCCCCC/C=C\C/C=C\CCCCC)SSCCN(C)C [ALNY-160] showed an ED50 (Factor VII [1]) of 2.00 mg/kg and a pKa [2] of 5.18.

For CCCCC/C=C\C/C=C\CCCCCCCCO[C@H]1C[C@H](N(C)C)C[C@H]1OCCCCCCCC/C=C\C/C=C\CCCCC [ALNY-117], the ED50 (Factor VII [1]) was greater than 5.0 mg/kg.

With CCCCC/C=C\C/C=C\CCCCCCCCC1(CCCCCCCC/C=C\C/C=C\CCCCC)OCC2(CCN(C)CC2)O1 [ALNY-148] the ED50 (Factor VII [1]) was 0.3 mg/kg and the pKa [2] was 6.53.

CCCCC/C=C\C/C=C\CCCCCCCCC1(CCCCCCCC/C=C\C/C=C\CCCCC)O[C@H]2CCN(C)C[C@H]2O1 [ALNY-105] showed an ED50 (Factor VII [1]) of 1.5 mg/kg and a pKa [2] of 5.6.

Compound CCCCC/C=C\C/C=C\CCCCCCCCC1(CCCCCCCC/C=C\C/C=C\CCCCC)O[C@H]2CC[C@H](CN(C)C)C[C@H]2O1 [ALNY-122] has an ED50 (Factor VII [1]) of 0.55 mg/kg.

For CCCCC/C=C\C/C=C\CCCCCCCCC(CCCCCCCC/C=C\C/C=C\CCCCC)NC(=O)OCCN(C)C [ALNY-202], the ED50 (Factor VII [1]) was 0.12 mg/kg and the pKa [2] was 6.52.

With CCCCC/C=C\C/C=C\CCCCCCCCC1(CCCCCCCCCC)O[C@H]2C[C@H](N(C)C)C[C@H]2O1 (stereo partly drawn) [ALNY-110] the ED50 (Factor VII [1]) was 2.0 mg/kg and the pKa [2] was 6.5.

For CCCCC/C=C\C/C=C\CCCCCCCCC1(CCCCCCCC/C=C\C/C=C\CCCCC)O[C@H]2[C@@H](OC)OC(CN(C)C)[C@H]2O1 (stereo partly drawn) [ALNY-151], the ED50 (Factor VII [1]) was greater than 5.00 mg/kg and the pKa [2] was 5.5.

CCCCC/C=C\C/C=C\CCCCCCCCC1(CCCCCCCC/C=C\C/C=C\CCCCC)O[C@H]2C[C@@H](N(C)C)C[C@H]2O1 [ALNY-101] showed an ED50 (Factor VII [1]) of 0.1 mg/kg and a pKa [2] of 6.43.

CCCCC/C=C\C/C=C\CCCCCCCCC(CCCCCCCC/C=C\C/C=C\CCCCC)ON=C(C)CCN(C)C [ALNY-149] gave an ED50 (Factor VII [1]) of 0.1 mg/kg and a pKa [2] of 5.81.

Compound CCCCC/C=C\C/C=C\CCCCCCCCC1(CCCCCCCC/C=C\C/C=C\CCCCC)O[C@H]2C[C@H](CN(C)C)C[C@H]2O1 [ALNY-116] has an ED50 (Factor VII [1]) of 1.0 mg/kg.

CCCCC/C=C\C/C=C\CCCCCCCCC1(CCCCCCCCCCCCCCCCCC)O[C@H]2C[C@H](N(C)C)C[C@H]2O1 (stereo partly drawn) [ALNY-108] showed an ED50 (Factor VII [1]) of 0.75 mg/kg and a pKa [2] of 6.55.

In the case of CCCCC/C=C\C/C=C\CCCCCCCCC1(CCCCCCCC/C=C\C/C=C\CCCCC)O[C@H]2C[C@@H](CN(C)C)C[C@H]2O1 [ALNY-115], the ED50 (Factor VII [1]) is reported as 1.0 mg/kg.

Compound CCCCC/C=C\C/C=C\CCCCCCCCC1(CCCCCCCC/C=C\C/C=C\CCCCC)O[C@H]2C[C@H](N(C)C)C[C@H]2O1 [ALNY-100] has an ED50 (Factor VII [1]) of 0.3 mg/kg and a pKa [2] of 6.4.

Work on CCCCC/C=C\C/C=C\CCCCCCCCC(CCCCCCCC/C=C\C/C=C\CCCCC)CNC(=O)OCCCN(C)C [ALNY-200] yielded an ED50 (Factor VII [1]) greater than 5.00 mg/kg and a pKa [2] of 7.57.

CCCCC/C=C\C/C=C\CCCCCCCCC1(CCCCCCCC/C=C\C/C=C\CCCCC)O[C@H]2CC[C@@H](CN(C)C)C[C@H]2O1 [ALNY-121] gave an ED50 (Factor VII [1]) of 0.5 mg/kg and a pKa [2] of 6.6.

In the case of CCCCC/C=C\C/C=C\CCCCCCCCC1(CCCCCCCC/C=C\C/C=C\CCCCC)O[C@H]2C[C@@H](N(C)C)C[C@H]2O1 [Compound 519], the “knockdown of FVII protein levels in vivo” value (Factor VII [3]) is reported as “almost complete knockdown”.

CCCCC/C=C\C/C=C\CCCCCCCCC1(CCCCCCCC/C=C\CCCCCCCC)O[C@H]2C[C@H](N(C)C)C[C@H]2O1 (stereo partly drawn) [ALNY-107] showed an ED50 (Factor VII [1]) of 0.25 mg/kg and a pKa [2] of 6.63.

CCCCC/C=C\C/C=C\CCCCCCCCC(CCCCCCCC/C=C\C/C=C\CCCCC)=NNCCN(C)C [ALNY-175] gave an ED50 (Factor VII [1]) of 2.7 mg/kg.

CCCCC/C=C\C/C=C\CCCCCCCCC1(CCCCCCCC/C=C\C/C=C\CCCCC)O[C@H]2C[C@H](N(C)C)CC[C@H]2O1 [ALNY-103] gave an ED50 (Factor VII [1]) of 2.5 mg/kg and a pKa [2] of 6.98.

Work on CCCCC/C=C\C/C=C\CCCCCCCCC1(CCCCCCCC/C=C\C/C=C\CCCCC)O[C@H]2C[C@@H](N(C)C)CC[C@H]2O1 [ALNY-102] yielded an ED50 (Factor VII [1]) of 2.0 mg/kg and a pKa [2] of 7.3.

For CCCCC/C=C\C/C=C\CCCCCCCCC1(CCCCCCCC/C=C\C/C=C\CCCCC)OCC(CCN(C)Cc2cccnc2)O1 (stereo not drawn) [ALNY-140], the ED50 (Factor VII [1]) was greater than 5.0 mg/kg and the pKa [2] was 4.95.

CCCCC/C=C\C/C=C\CCCCCCCCC1(CCCCCCCC/C=C\C/C=C\CCCCC)O[C@H]2COC(CN(C)C)[C@H]2O1 (stereo partly drawn) [ALNY-144] showed an ED50 (Factor VII [1]) of 0.60 mg/kg.

CCCCC/C=C\C/C=C\CCCCCCCCC(CCCCCCCC/C=C\C/C=C\CCCCC)CNC(=O)CCN(C)C [ALNY-201, 3-(dimethylamino)-N-((11Z,14Z)-2-((9Z,12Z)-octadeca-9,12-dienyl)icosa-11,14-dienyl)propanamide] gave an ED50 (Factor VII [1]) greater than 5.0 mg/kg and a pKa [2] of 8.02.

Work on CCCCC/C=C\C/C=C\CCCCCCCCC(CCCCCCCC/C=C\C/C=C\CCCCC)CN(C)CCN(C)C [ALNY-141] yielded an ED50 (Factor VII [1]) of 0.14 mg/kg and a pKa [2] of 6.62.

With CCCCC/C=C\C/C=C\CCCCCCCC1OC(C)(CCN(C)C)OC1CCCCCCC/C=C\C/C=C\CCCCC (stereo not drawn) [ALNY-152] the ED50 (Factor VII [1]) was 0.15 mg/kg and the pKa [2] was 6.6.

In the case of CCCCC/C=C\C/C=C\CCCCCCCCC(CCCCCCCC/C=C\C/C=C\CCCCC)OC(=O)NCCN(C)C [ALNY-190], the ED50 (Factor VII [1]) is reported as 0.47 mg/kg and the pKa [2] is reported as 6.49.

CCCCC/C=C\C/C=C\CCCCCCCC1OC2(CCC(N(C)C)CC2)OC1CCCCCCC/C=C\C/C=C\CCCCC (stereo not drawn) [ALNY-158] gave an ED50 (Factor VII [1]) of 1.40 mg/kg.

Compound CCCCC/C=C\C/C=C\CCCCCCCCC1(CCCCCCCC/C=C\C/C=C\CCCCC)O[C@H]2CN(C)C[C@H]2O1 [ALNY-104] has an ED50 (Factor VII [1]) of 2.5 mg/kg and a pKa [2] of 5.65.

In the case of CCCCC/C=C\C/C=C\CCCCCCCCC(CCCCCCCC/C=C\C/C=C\CCCCC)CNC(=O)OCCN(C)C [ALNY-203], the ED50 (Factor VII [1]) is reported as 5.0 mg/kg and the pKa [2] is reported as 7.07.

CCCCC/C=C\C/C=C\CCCCCCCC1OC2(CCN(C)CC2)OC1CCCCCCC/C=C\C/C=C\CCCCC (stereo not drawn) [ALNY-156] gave a pKa [2] of 6.08.

For CCCCC/C=C\C/C=C\CCCCCCCCC1(CCCCCCCC/C=C\C/C=C\CCCCC)O[C@@H]2CC[C@H](N(C)C)C[C@H]2O1 [ALNY-169], the ED50 (Factor VII [1]) was 2.60 mg/kg.

In the case of CCCCC/C=C\C/C=C\CCCCCCCCC(CCCCCCCC/C=C\C/C=C\CCCCC)NC(=O)OCCCN(C)C [ALNY-192], the ED50 (Factor VII [1]) is reported as 2.1 mg/kg and the pKa [2] is reported as 7.21.

Compound CCCCC/C=C\C/C=C\CCCCCCCCC1(CCCCCCCCCCCC)O[C@H]2C[C@H](N(C)C)C[C@H]2O1 (stereo partly drawn) [ALNY-109] has an ED50 (Factor VII [1]) of 2.0 mg/kg and a pKa [2] of 6.75.

For CCCCC/C=C\C/C=C\CCCCCCCCC1(CCCCCCCC/C=C\C/C=C\CCCCC)O[C@H]2CCN(C)CC[C@H]2O1 [ALNY-106], the ED50 (Factor VII [1]) was 0.3 mg/kg and the pKa [2] was 6.85.
